Experimental data from patent publication EP0618807B1, “A STABILIZED PHARMACEUTICAL FORMULATION COMPRISING GROWTH HORMONE AND HISTIDINE” (NOVO NORDISK A/S, priority 1991, dated 1993).

Tests used:
[1] = Stability statements of the general description (deamidation, stability in solution); format: physicochemical; conditions: addition of the solvent to the hGH preparation
[2] = Example 2: deamidation at 25°C with histidine or histidine derivatives, desamido content by IE-HPLC; format: physicochemical; conditions: compared to phosphate at pH 6.5
Protocol: The rate of deamidation was examined at 25°C for hGH preparations comprising 6 IU hGH at pH 6.5 and at pH 7.3 in 5 mM, 10 mM and 100mM His buffer as compared to 8 mM phosphate buffer at the same pH. Furthermore, the histidine derivatives His-Gly, His-Ala, His-Leu, His-Lys, His-Phe, His-Ser, Histidine methyl ester, histidinol, imidazole, imidazole-4-acetic acid and histamine were tested.
The hGH preparations were prepared by dissolving 20 mg hGH in 10 ml of histidine buffer of the desired strength prepared by dissolving 7.8 mg, 15.5 mg and 155.2 mg, respectively, of histidine in 10 ml deionized water containing 0.9% (v/v) of benzyl alcohol and adding 0.1 N hydrochloric acid to achieve the stated pH.
The hGH formulations stated in Table 2 below were stored at 25°C and analyzed for their desamido content after 14 and 30 days by IE-HPLC.

| SMILES | reduction in the deamidation [1] | effect on de-amidation / stabilization (in words) [2] |
| --- | --- | --- |
| CO [5% methanol, methanol] | more than 20% | – |
| CCO [10% ethanol, ethanol] | more than 20% | – |
| OCc1ccccc1 [benzyl alcohol] | – | no influence |
| Cc1cccc(O)c1 [m-cresol] | – | no influence |
